From US7807701B2, “Dibenzylamine compounds and pharmaceutical use thereof” (Japan Tobacco Inc., priority 2002, dated 2010) come the findings set out here.

Each structure is given as a SMILES string. Structures can show the parent of a compound that is named as a salt.

The experiment concerns the target T1, CETP (Homo sapiens, UniProt P11597).
T1 construct: The donor lipoprotein obtained above was added to plasma of healthy subject; from tissue; host or cells: whole plasma of healthy subject
T1 sequence (P11597 18-493): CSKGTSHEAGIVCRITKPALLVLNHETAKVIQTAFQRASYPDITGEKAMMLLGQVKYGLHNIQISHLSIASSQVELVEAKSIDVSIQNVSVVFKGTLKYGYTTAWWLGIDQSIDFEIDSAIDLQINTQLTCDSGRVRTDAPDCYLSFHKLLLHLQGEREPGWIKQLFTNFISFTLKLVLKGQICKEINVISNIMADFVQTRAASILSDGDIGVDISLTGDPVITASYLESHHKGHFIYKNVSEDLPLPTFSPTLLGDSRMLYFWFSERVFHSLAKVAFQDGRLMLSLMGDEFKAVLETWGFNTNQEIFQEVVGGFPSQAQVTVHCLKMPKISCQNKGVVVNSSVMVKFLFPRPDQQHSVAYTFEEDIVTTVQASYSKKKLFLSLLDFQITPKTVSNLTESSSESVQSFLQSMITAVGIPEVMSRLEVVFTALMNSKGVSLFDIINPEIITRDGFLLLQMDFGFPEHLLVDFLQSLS
Nature of the experiment: Inhibitory effect in vitro on CETP activity in total plasma. Conditions: plasma of healthy subject with [3H]CE-HDL3, 37° C., 4 hr; average values. The format is biochemical. How it is done: Potassium bromide (KBr) was added to plasma (40 mL) of healthy subject and the mixture was adjusted to have a specific density d=1.125 g/mL. The mixture was subjected to density gradient centrifugation (227,000×g, 4° C., 17 hr) and a fraction showing a specific density of d>1.125 g/mL (HDL3 fraction) was harvested. The obtained fraction was dialyzed against PBS solution [10 mmol/L Na2HPO4; 10 mmol/L NaH2PO4; 0.15 mol/L NaCl; […] (pH 7.4)]. Then, tritium-labeled cholesterol (37 MBq) was dissolved in 95% ethanol, gradually added to the above-mentioned HDL3 fraction with stirring and incubated at 37° C. for 18 hr. [By this operation, tritium-labeled cholesterol was esterified by the action of lecithin acyl transferase (LCAT) present on the HDL3 surface and taken up into HDL3 as tritium-labeled cholesteryl ester ([^3H]CE)]. After incubation, KBr was added, the mixture was adjusted to have a specific density d=1.21 g/mL, subjected to density gradient centrifugation (227,000×g, 4° C., 17 hr) and a fraction of specific density […] was harvested. The obtained fraction was dialyzed against the aforementioned PBS solution to give HDL3 incorporating [^3H]CE ([^3H]CE-HDL3, specific density: 1.125<d<1.21, specific activity: 10,000 dpm/μL), which was used as a donor lipoprotein.
The donor lipoprotein obtained above was added to plasma of healthy subject to prepare a [^3H]CE-HDL3-containing plasma (1,000 dpm/μL). The compound was dissolved in dimethyl formamide. A solution of the compound or a solvent alone (2 μL) and the [^3H]CE-HDL3-containing plasma (100 μL) were added into a microtube, and this was incubated at 37° C. or 4° C. for 4 hr. After ice-cooling, TBS solution [100 μL, 20 mmol/L Tris; 0.15 mol/L NaCl (pH 7.4)] containing 1 mol/L magnesium chloride and 2% dextran sulfate was added to each microtube and the mixture was thoroughly stirred. After keeping at 4° C. for 30 min, the mixture was centrifuged (10,000×g, 4° C., 10 min), and the radioactivity in the obtained supernatant (HDL fraction) was measured with a scintillation counter. […] The concentration of the compound necessary for inhibiting the CETP activity by 50% was calculated as an IC50 value.

Turning to `CCN(C[C@H]1CC[C@H](C(=O)O)CC1)c1cc2c(cc1CN(Cc1cc(C(F)(F)F)cc(C(F)(F)F)c1)c1cc(C)no1)CCCC2` [Example 71, trans-4-{[N-(3-{[N′-[3,5-bis(trifluoromethyl)benzyl]-N′-(3-methylisoxazol-5-yl)amino]methyl}-5,6,7,8-tetrahydronaphthalen-2-yl)-N-ethylamino]methyl}cyclohexanecarboxylic acid hydrochloride], the IC50 amounted to 0.44 µM.
The value for `CCN(C[C@H]1CC[C@H](C(=O)O)CC1)c1cc2c(cc1CN(Cc1cc(C#N)cc(C(F)(F)F)c1)c1cc(C)no1)CCCC2` [Example 72, trans-4-{[N-(3-{[N′-(3-cyano-5-trifluoromethylbenzyl)-N′-(3-methylisoxazol-5-yl)amino]methyl}-5,6,7,8-tetrahydronaphthalen-2-yl)-N-ethylamino]methyl}cyclohexanecarboxylic acid hydrochloride] was 0.39 µM; that for `CCN(CC1CCCC1)c1cc2c(cc1CN(Cc1cc(C(F)(F)F)cc(C(F)(F)F)c1)c1nnn(CCO)n1)CCC2` [Example 73, 2-(5-{N-[3,5-bis(trifluoromethyl)benzyl]-N-[6-(N′-cyclopentylmethyl-N′-ethylamino)indan-5-ylmethyl]amino}tetrazol-2-yl)ethanol hydrochloride] was 0.19 µM; that for `CCN(CCCCC(=O)OC)c1cc2c(cc1CN(Cc1cc(C(F)(F)F)cc(C(F)(F)F)c1)c1ncn(C)n1)CCCC2` [Example 74, methyl 5-[N-(3-{[N′-[3,5-bis(trifluoromethyl)benzyl]-N′-(1-methyl-1H-[1,2,4]triazol-3-yl)amino]methyl}-5,6,7,8-tetrahydronaphthalen-2-yl)-N-ethylamino]pentanoate hydrochloride] was 0.4 µM.
Turning to `CCN(CCCCC(=O)OC)c1cc2c(cc1CN(Cc1cc(C#N)cc(C(F)(F)F)c1)c1ncn(C)n1)CCCC2` [Example 75, methyl 5-[N-(3-{[N′-(3-cyano-5-trifluoromethylbenzyl)-N′-(1-methyl-1H-[1,2,4]triazol-3-yl)amino]methyl}-5,6,7,8-tetrahydronaphthalen-2-yl)-N-ethylamino]pentanoate hydrochloride], the IC50 is 0.41 µM.
Under `CCN(CCCCC(=O)O)c1cc2c(cc1CN(Cc1cc(C(F)(F)F)cc(C(F)(F)F)c1)c1ncn(C)n1)CCCC2` [Example 76, 5-[N-(3-{[N′-[3,5-bis(trifluoromethyl)benzyl]-N′-(1-methyl-1H-[1,2,4]triazol-3-yl)amino]methyl}-5,6,7,8-tetrahydronaphthalen-2-yl)-N-ethylamino]pentanoic acid hydrochloride] stands 0.29 µM; under `CCN(CCCCC(=O)O)c1cc2c(cc1CN(Cc1cc(C#N)cc(C(F)(F)F)c1)c1ncn(C)n1)CCCC2` [Example 77, 5-[N-(3-{[N′-(3-cyano-5-trifluoromethylbenzyl)-N′-(1-methyl-1H-[1,2,4]triazol-3-yl)amino]methyl}-5,6,7,8-tetrahydronaphthalen-2-yl)-N-ethylamino]pentanoic acid hydrochloride], 0.54 µM.
Under `CCN(CCCCC(=O)O)c1cc2c(cc1CN(Cc1cc(C(F)(F)F)cc(C(F)(F)F)c1)c1cc(C)no1)CCCC2` [Example 78, 5-[N-(3-{[N′-[3,5-bis(trifluoromethyl)benzyl]-N′-(3-methylisoxazol-5-yl)amino]methyl}-5,6,7,8-tetrahydronaphthalen-2-yl)-N-ethylamino]pentanoic acid hydrochloride] stands 0.32 µM; under `CCN(CCCCC(=O)O)c1cc2c(cc1CN(Cc1cc(C#N)cc(C(F)(F)F)c1)c1cc(C)no1)CCCC2` [Example 79, 5-[N-(3-{[N′-(3-cyano-5-trifluoromethylbenzyl)-N′-(3-methylisoxazol-5-yl)amino]methyl}-5,6,7,8-tetrahydronaphthalen-2-yl)-N-ethylamino]pentanoic acid hydrochloride], 0.89 µM.
The value for `CCN(CCCCC(=O)O)c1cc2c(cc1CN(Cc1cc(C(F)(F)F)cc(C(F)(F)F)c1)c1nnn(C)n1)CCCC2` [Example 80, 5-[N-(3-{[N′-[3,5-bis(trifluoromethyl)benzyl]-N′-(2-methyl-2H-tetrazol-5-yl)amino]methyl}-5,6,7,8-tetrahydronaphthalen-2-yl)-N-ethylamino]pentanoic acid hydrochloride] was 0.43 µM.
Consider `CCN(CCCCC(=O)O)c1cc2c(cc1CN(Cc1cc(C#N)cc(C(F)(F)F)c1)c1nnn(C)n1)CCCC2` [Example 81, 5-[N-(3-{[N′-(3-cyano-5-trifluoromethylbenzyl)-N′-(2-methyl-2H-tetrazol-5-yl)amino]methyl}-5,6,7,8-tetrahydronaphthalen-2-yl)-N-ethylamino]pentanoic acid hydrochloride], for which the IC50 came to 0.33 µM.
Under `CCN(C[C@H]1CC[C@H](C(=O)O)CC1)c1cc2c(cc1CN(Cc1cc(C(F)(F)F)cc(C(F)(F)F)c1)c1noc(C)n1)CCC2` [Example 82, trans-4-{[N-(6-{[N′-[3,5-bis(trifluoromethyl)benzyl]-N′-(5-methyl-[1,2,4]oxadiazol-3-yl)amino]methyl}indan-5-yl)-N-ethylamino]methyl}cyclohexanecarboxylic acid] stands 0.59 µM.
Under `CCN(CCCCC(=O)O)c1ccc(C(F)(F)F)cc1CN(Cc1cc(C(F)(F)F)cc(C(F)(F)F)c1)c1nnn(C)n1` [Example 86, 5-[N-(2-{[N′-[3,5-bis(trifluoromethyl)benzyl]-N′-(2-methyl-2H-tetrazol-5-yl)amino]methyl}-4-trifluoromethylphenyl)-N-ethylamino]pentanoic acid hydrochloride] stands 0.941 µM.
Under `CCN(C[C@H]1CC[C@H](C(=O)O)CC1)c1cc2c(cc1CN(Cc1cc(C(F)(F)F)cc(C(F)(F)F)c1)c1nnn(CC)n1)CCC2` [Example 93, trans-4-{[N-(6-{[N′-[3,5-bis(trifluoromethyl)benzyl]-N′-(2-ethyl-2H-tetrazol-5-yl)amino]methyl}indan-5-yl)-N-ethylamino]methyl}cyclohexanecarboxylic acid hydrochloride] stands 0.76 µM; under `CCN(C[C@H]1CC[C@H](C(=O)O)CC1)c1cc2c(cc1CN(Cc1cc(C(F)(F)F)cc(C(F)(F)F)c1)c1nnn(CC)n1)CCCC2` [Example 99, trans-4-{[N-(3-{[N′-[3,5-bis(trifluoromethyl)benzyl]-N′-(2-ethyl-2H-tetrazol-5-yl)amino]methyl}-5,6,7,8-tetrahydronaphthalen-2-yl)-N-ethylamino]methyl}cyclohexanecarboxylic acid hydrochloride], 0.53 µM; under `CCN(CCC(C)(C)CC(=O)O)c1cc2c(cc1CN(Cc1cc(C(F)(F)F)cc(C(F)(F)F)c1)c1ccn(C)n1)CCC2` [Example 102, 5-[N-(6-{[N′-[3,5-bis(trifluoromethyl)benzyl]-N′-(1-methyl-1H-pyrazol-3-yl)amino]methyl}indan-5-yl)-N-ethylamino]-3,3-dimethylpentanoic acid], 0.59 µM.
Consider `CCN(CCC(C)(C)CC(=O)O)c1cc2c(cc1CN(Cc1cc(C(F)(F)F)cc(C(F)(F)F)c1)c1noc(C)n1)CCC2` [Example 103, 5-[N-(6-{[N′-[3,5-bis(trifluoromethyl)benzyl]-N′-(5-methyl-[1,2,4]oxadiazol-3-yl)amino]methyl}indan-5-yl)-N-ethylamino]-3,3-dimethylpentanoic acid hydrochloride], for which it took 0.43 µM to reach half-maximal inhibition (IC50).
The value for `CCN(CCC(C)(C)CC(=O)O)c1ccc(OC(F)(F)F)cc1CN(Cc1cc(C(F)(F)F)cc(C(F)(F)F)c1)c1nnn(C)n1` [Example 104, 5-[N-(2-{[N′-[3,5-bis(trifluoromethyl)benzyl]-N′-(2-methyl-2H-tetrazol-5-yl)amino]methyl}-4-trifluoromethoxyphenyl)-N-ethylamino]-3,3-dimethylpentanoic acid hydrochloride] was 0.35 µM.
